Results published in patent publication US20120034193A1, “TREATMENT OF NEUROTROPHIC FACTOR MEDIATED DISORDERS” (priority 2009, published 2012).
Marks after values point to notes of the source that are not given here.

Experiments:
[1] = system: BDNF mRNA; assay: BDNF mRNA expression in rat cortical neurones under basal conditions (rt RT-PCR); format: cell-based; conditions: 30 nM
Method: (§1) Rat cortical neurones were cultured by modification of a method previously described (Singer, et al., Neuroscience Letters, 1996, 212, pp. 13-16). Twelve days after the start of culturing, sarsasapogenin (30 nM), smilagenin (30 nM), 4-methylcatechol (0.5 mM), an inducer of NGF and BDNF release (Saporito et al., Experimental Neurology., 1993, 123, pp. 295-302; Nitta et al., Journal of Pharmacology and Experimental Therapeutics, 1999, 291, pp. 1276-1283) or vehicle (dimethyl sulfoxide, DMSO, 0.25%) were added for 1, 3 or 6 h. After incubation the total messenger ribonucleic acid (mRNA) was quantified using real time reverse transcription-polymerase chain reaction (rt RT-PCR).

[2] = system: trkB mRNA; assay: trkB mRNA expression in rat cortical neurones under basal conditions (rt RT-PCR); format: cell-based; conditions: 30 nM
Method: as §1

[3] = system: BDNF; assay: BDNF protein in culture medium of rat cortical neurones exposed to β-amyloid; format: cell-based; conditions: 10 μM pre-incubation 48 h, then β-amyloid 10 μg/ml 48 h
Method: Rat cortical neurones were cultured by modification of a method previously described (Eckenstein and Sofroniew, Journal of Neuroscience, 1983, 3, pp. 2286-2291). On day 8, the culture medium was changed to a medium containing vehicle (DMSO, 0.5%) or smilagenin or sarsasapogenin (10 μM). On day 10, rat primary cortical neurones were exposed to β-amyloid (10 μg/ml) for 48 h at 37° C. and the concentration of BDNF in the culture medium, the number of choline acetyltransferase (ChAT) positive cells, and the neurite outgrowth was measured (smilagenin only).

[4] = system: Rat cortical neurones; assay: Neuritogenesis in cortical neurones; format: cell-based; conditions: 24 h; for Neurones displaying neurites (%): control 39.35 ± 2.06
Method: Rat cortical neurones were cultured by modification of a previously described method (Singer, et al., Neuroscience Letters, 1996, 212, pp. 13-16). Cells were cultured with sarsasapogenin, smilagenin, vehicle (DMSO 0.25%), GDNF, BDNF or NGF for 24 h. For each group, 15 pictures showing neurones displaying neurites were selected at random in each field, and for each neurone the longest neurite was measured. The neurite number was measured by counting the number of neurones displaying neurites, the number of neurones not displaying neurites and the number of total neurones in each field. Six fields per well were examined.
The results are shown in Table 15 below, expressed as the number of neurones with neurites per field as a percentage of the total number of neurones per field.

[5] = system: C57b1/6 RJ mice; assay: Sciatic nerve crush model; format: in vivo, Mouse; conditions: for Degenerated fibres (% of control): nerve crush alone 109.10 ± 2.65; for Recovery of nerve function as measured by CMAP parameters (amplitude, latency, duration): sarsasapogenin 3, smilagenin 0.3 and 3 mg/kg/day, oral gavage in oil, 6 weeks
From the text: The sciatic nerve crush model is a well characterised reversible model for motor neurone disease and post-traumatic nerve injuries (McMahon and Priestley, Current Opinion in Neurobiology, 1995, 5, pp. 616-624). The nerve damage is produced by mechanical pressure using haemostatic forceps, applied twice, 5 mm proximal to the trifurcation of the right sciatic nerve of these mice. […] The loss of nerve function recovers progressively over a 4-5 week period after the mechanical insult.
4-Methylcatechol (10 μg/kg/day, i.p.) was used as a positive control (Kaechi et al., Journal of Phamacology and Experimental Therapeutics, 1995, 272, pp. 1300-1304).
C57b1/6 RJ mice were anaesthetised with ketamine chlorhydrate (60 mg/kg, i.p.). The sciatic nerve was surgically exposed at mid thigh level and crushed at 5 mm proximal to the trifurcation of the sciatic nerve. The nerve was crushed twice for 30 s with a haemostatic forceps with a 90-degree rotation between each crush. […] The loss of nerve function recovered progressively over a 4-5 week period after mechanical insult. Electromyographic recordings were assessed as described above.

[6] = system: Old Sprague Dawley (SD) rats; assay: Y-maze learning and memory in aged rats; format: in vivo, Rat; conditions: 18 mg/kg/day oral; for Learning ability (correct response/total time): 2 months, aged 2.39, young 5.97; for Memory ability (correct response/total time): 3 months, aged 2.16, young 5.27; for Anxiety (Y-maze): up to 3 months
Method: Old Sprague Dawley (SD) rats (20 month old) were orally administered sarsasapogenin or smilagenin (18 mg/kg/day) for 3 months. Young SD rats (4 month old) were used as healthy positive control and old SD rats (20 month old) were used as neurodegenerative control. A Y-maze was used to assess learning and memory, and was considered also a model of anxiety in light of the nature of the test that caused distress to the animal. On the floor of each arm of the Y-maze was an array of copper rods (2 mm×140 mm) to which an adjustable voltage electric current was applied when needed. Each arm was 450 mm long with a 15 W lamp at the end. Following 2 months of treatment each rat was trained for 7 consecutive days, once on each day. During each training session, a rat was put into one arm of the Y-maze and after 2 min an electrical current applied to the copper rods in the anti-clockwise arm and the lamp of the clockwise arm was illuminated, indicating the non-electrified area. If the rat went into the illuminated arm a correct response was recorded, otherwise a wrong response was recorded. This stimulation-response test was repeated 20 times each day, with a pause of 5 s between each test. The number of correct responses and the total time period for the 20 tests were recorded. A quotient of the number of correct responses divided by the total response time was calculated and used as an index for learning ability, with the higher the quotient the greater the learning ability. One month after the learning test (3 months of treatment) the Y-maze test was carried out again and the quotient obtained was used as an index for memory ability. At the end of the treatment the rats were killed and the brains removed for quantification of BDNF using an ELISA (data of BDNF presented in Example 3 above).

[7] = Tissue distribution after a single oral administration, dog; format: in vivo
[8] = Dog M, 10 mg/kg single oral, 2 h
[9] = Dog M, 10 mg/kg single oral, 24 h
[10] = Dog M, 10 mg/kg single oral, 168 h
[11] = Dog F, 25 mg/kg single oral, 4 h
[12] = Dog F, 25 mg/kg single oral, 24 h
[13] = Dog F, 25 mg/kg single oral, 168 h
[14] = Dog M, 25 mg/kg single oral, 4 h
[15] = Dog M, 25 mg/kg single oral, 24 h
[16] = Dog M, 25 mg/kg single oral, 168 h

| SMILES | BDNF mRNA, % increase above control ([1]; 1 h) | BDNF mRNA, % increase above control ([1]; 3 h) [%] | BDNF mRNA, % increase above control ([1]; 6 h) | trkB mRNA, % increase above control ([2]; 1 h) | trkB mRNA, % increase above control ([2]; 3 h) [%] | trkB mRNA, % increase above control ([2]; 6 h) | BDNF concentration (pg/ml) [3] | Neurite length (% of control) ([4]; 3 nM) | Neurones displaying neurites (%) ([4]; 3 nM) | Neurite length (% of control) ([4]; 30 nM) | Neurones displaying neurites (%) ([4]; 30 nM) | Degenerated fibres (% of control) ([5]; 3 mg/kg/day oral) | Recovery of nerve function as measured by CMAP parameters (amplitude, latency, duration) [5] | Learning ability (correct response/total time) [6] | Memory ability (correct response/total time) [6] | Anxiety (Y-maze) [6] | other results |
| --- | --- | --- | --- | --- | --- | --- | --- | --- | --- | --- | --- | --- | --- | --- | --- | --- | --- |
| C[C@@H]1CC[C@@]2(OC1)O[C@H]1C[C@H]3[C@@H]4CC[C@@H]5C[C@@H](O)CC[C@]5(C)[C@H]4CC[C@]3(C)[C@H]1[C@@H]2C [Smilagenin, smilagenin] | No increase | 40 | No increase | 21% | 55 | No increase | 4.20 ± 0.06****^,++++ pg/ml | 159.03 ± 4.91 % of control | 53.84 ± 2.93 | 176.71 ± 6.34 % of control | 53.46 ± 2.13 | −8.10 ± 6.03 % of control | significantly improved the recovery of nerve function | 4.81 ± 0.32 correct response/total time | 4.58 ± 0.26 correct response/total time | reduce the anxiety | Degenerated fibres (% of control) ([5]; 0.3 mg/kg/day oral): 16.70 ± 4.23 % of control; Concentration of compound, Brain [7, 8]: 3670 ng equivalents/g tissue; Concentration of compound, Plasma [7, 8]: 3878 ng equivalents/g tissue; Concentration of compound, Spinal cord [7, 8]: 1805 ng equivalents/g tissue; Concentration of compound, Brain [7, 9]: 5813 ng equivalents/g tissue; Concentration of compound, Plasma [7, 9]: 1508 ng equivalents/g tissue; Concentration of compound, Spinal cord [7, 9]: 3647 ng equivalents/g tissue; Concentration of compound, Brain [7, 10]: 1727 ng equivalents/g tissue; Concentration of compound, Plasma [7, 10]: 1129 ng equivalents/g tissue; Concentration of compound, Spinal cord [7, 10]: 3165 ng equivalents/g tissue |
| C[C@H]1CC[C@@]2(OC1)O[C@H]1C[C@H]3[C@@H]4CC[C@@H]5C[C@@H](O)CC[C@]5(C)[C@H]4CC[C@]3(C)[C@H]1[C@@H]2C [Sarsasapogenin, sarsasapogenin] | No increase | 22 | No increase | No increase | 33 | No increase | 9.31 ± 0.15^++++,**** pg/ml | 168.29 ± 6.12 % of control | 52.40 ± 2.63 | 156.74 ± 4.06 % of control | 57.32 ± 2.54 | 33.50 ± 12.60 % of control | significantly improved the recovery of nerve function | 5.02 ± 0.50 correct response/total time | 4.66 ± 0.34 correct response/total time | reduce the anxiety | Concentration of compound, Brain [7, 11]: 0.128 ng equivalents/g tissue; Concentration of compound, Plasma [7, 11]: 0.184 ng equivalents/g tissue; Concentration of compound, Spinal cord [7, 11]: 0.515 ng equivalents/g tissue; Concentration of compound, Brain [7, 12]: 8.64 ng equivalents/g tissue; Concentration of compound, Plasma [7, 12]: 1.79 ng equivalents/g tissue; Concentration of compound, Spinal cord [7, 12]: 5.79 ng equivalents/g tissue; Concentration of compound, Brain [7, 13]: 0.535 ng equivalents/g tissue; Concentration of compound, Plasma [7, 13]: 0.115 ng equivalents/g tissue; Concentration of compound, Spinal cord [7, 13]: 1.43 ng equivalents/g tissue; Concentration of compound, Brain [7, 14]: 1.37 ng equivalents/g tissue; Concentration of compound, Plasma [7, 14]: 0.641 ng equivalents/g tissue; Concentration of compound, Spinal cord [7, 14]: 1.13 ng equivalents/g tissue; Concentration of compound, Brain [7, 15]: 2.33 ng equivalents/g tissue; Concentration of compound, Plasma [7, 15]: 0.196 ng equivalents/g tissue; Concentration of compound, Spinal cord [7, 15]: 1.82 ng equivalents/g tissue; Concentration of compound, Brain [7, 16]: 0.605 ng equivalents/g tissue; Concentration of compound, Plasma [7, 16]: 0.309 ng equivalents/g tissue; Concentration of compound, Spinal cord [7, 16]: 1.49 ng equivalents/g tissue |
